# In patent US11590116B2 (THERAVANCE BIOPHARMA R&D IP, LLC, priority 2019, dated 2023):
# What was measured:
# [1] = tested on: TGF-β-stimulated SMAD3 phosphorylation in BEAS-2B cells; assay: Cellular ALK5 potency assay, inhibition of TGF-β stimulated pSMAD3 formation in BEAS-2B cells; assay type: cell-based; conditions: Homo sapiens; inhibition of TGF-β stimulated pSMAD3 formation, BEAS-2B cells; read-out: BEAS2B pIC50 (converted)
# In short: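 Cells seeded overnight; rinse with supplemented HBSS; compound 1 h at 37 °C; TGF-β 10 ng/mL final, 30 min; lyse; AlphaLISA acceptor and detector beads 2 h apart, read next day. Potency expressed as pIC50.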
# [2] = target: T1, recombinant human ALK5 (TGF-βR1) protein (Homo sapiens, UniProt P36897); assay: Biochemical ALK5 (TGF-βR1) assay to measure pKi (LANCE Ultra ULight kinase assay); conditions: apparent pKi from pIC50 by Cheng-Prusoff, read-out: ALK5 pKi (converted)
# T1 construct: purchased Life Technologies PR9075A
# T1 sequence (P36897 34-503): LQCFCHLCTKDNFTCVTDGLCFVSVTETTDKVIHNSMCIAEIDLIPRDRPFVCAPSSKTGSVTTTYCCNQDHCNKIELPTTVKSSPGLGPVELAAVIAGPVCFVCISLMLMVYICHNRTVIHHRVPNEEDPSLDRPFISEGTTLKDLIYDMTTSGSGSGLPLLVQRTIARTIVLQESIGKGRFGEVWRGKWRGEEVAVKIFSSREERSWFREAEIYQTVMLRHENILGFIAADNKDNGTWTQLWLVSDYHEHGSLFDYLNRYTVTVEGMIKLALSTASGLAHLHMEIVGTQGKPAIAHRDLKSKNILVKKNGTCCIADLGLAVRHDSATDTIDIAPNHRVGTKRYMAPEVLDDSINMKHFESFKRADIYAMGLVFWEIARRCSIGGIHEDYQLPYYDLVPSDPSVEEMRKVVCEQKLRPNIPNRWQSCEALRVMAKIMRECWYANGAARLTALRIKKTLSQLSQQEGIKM
# In short: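 Compounds (10 μM to 25 pM) were preincubated 60 min at room temperature with enzyme, then reactions were started with ATP (125 μM stock, 5× final) and run 60 min at 37 °C. EDTA-containing Eu-anti-phospho-Topo IIα (Thr1342) antibody stopped the reaction; TR-FRET read at 665 nm. pIC50 from 4-parameter fit, converted to pKi via Cheng-Prusoff.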
SMILES,IC50 [1] [nM],Ki [2] [nM]
"Cc1cccc(-c2[nH]cnc2-c2ccc3ncc(NCCN4CCNCC4)cc3c2)n1 [Compound 122, 6-[5-(6-methyl-2-pyridyl)-1H-imidazol-4-yl]-N-(2-piperazin-1-ylethyl)quinolin-3-amine]",25.1 to 158,0.0398 to 0.316
"Cc1nc(-c2n[nH]cc2-c2ccc3ncc(-c4cnc5n4CCCN5)cc3n2)ccc1F [Compound 123, 2-[3-(5-fluoro-6-methyl-2-pyridyl)-1H-pyrazol-4-yl]-7-(5,6,7,8-tetrahydroimidazo[1,2-a]pyrimidin-3-yl)-1,5-naphthyridine]",25.1 to 158,0.0398 to 0.316
"Cc1cccc(-c2n[nH]cc2-c2ccc3ncc(N4CCC5(CCN(C(=O)OCc6ccccc6)C5)C4)cc3n2)n1 (stereo not drawn) [Compound 124, benzyl 7-[6-[3-(6-methyl-2-pyridyl)-1H-pyrazol-4-yl]-1,5-naphthyridin-3-yl]-2,7-diazaspiro[4.4]nonane-2-carboxylate]",25.1 to 158,0.0398 to 0.316
"CNCCn1cc(-c2cnc3ccc(-c4nn[nH]c4-c4cccc(C)n4)cc3c2)cn1 [Compound 125, N-methyl-2-(4-(6-(5-(6-methylpyridin-2-yl)-1H-1,2,3-triazol-4-yl)quinolin-3-yl)-1H-pyrazol-1-yl)ethan-1-amine]",25.1 to 158,< 0.0316
"Cc1cccc(-c2n[nH]cc2-c2ccc3ncc(CO)cc3n2)n1 [Compound 126, [6-[3-(6-methyl-2-pyridyl)-1H-pyrazol-4-yl]-1,5-naphthyridin-3-yl]methanol]",25.1 to 158,0.0398 to 0.316
"CNCCn1cc(-c2cnc3ccc(-c4c[nH]nc4-c4cccc(C)n4)nc3c2OC)cn1 [Compound 127, 2-[4-[4-methoxy-6-[3-(6-methyl-2-pyridyl)-1H-pyrazol-4-yl]-1,5-naphthyridin-3-yl]pyrazol-1-yl]-N-methyl-ethanamine]",25.1 to 158,< 0.0316
"Cc1cccc(-c2[nH]cnc2-c2ccc3ncc(Nc4nc5n(n4)CCN(C(C)C)C5)cc3c2)n1 [Compound 128, N-(7-isopropyl-6,8-dihydro-5H-[1,2,4]triazolo[1,5-a]pyrazin-2-yl)-6-[5-(6-methyl-2-pyridyl)-1H-imidazol-4-yl]quinolin-3-amine]",25.1 to 158,0.0398 to 0.316
"Cc1cccc(-c2[nH]cnc2-c2ccc3ncc(NCCN4CC5CNC5C4)cc3c2)n1 (stereo not drawn) [Compound 129, N-[2-(3,6-diazabicyclo[3.2.0]heptan-3-yl)ethyl]-6-[5-(6-methyl-2-pyridyl)-1H-imidazol-4-yl]quinolin-3-amine]",200 to 1260,0.0398 to 0.316
"Cc1cccc(-c2n[nH]cc2-c2ccc3ncc(-c4nnn5c4CNCC5)cc3n2)n1 [Compound 130, 2-[3-(6-methyl-2-pyridyl)-1H-pyrazol-4-yl]-7-(4,5,6,7-tetrahydrotriazolo[1,5-a]pyrazin-3-yl)-1,5-naphthyridine]",25.1 to 158,0.0398 to 0.316
"Cc1cccc(-c2[nH]cnc2-c2ccc3ncc(N4CC5(CNC5)C4)cc3c2)n1 [Compound 131, 3-(2,6-diazaspiro[3.3]heptan-2-yl)-6-[5-(6-methyl-2-pyridyl)-1H-imidazol-4-yl]quinoline]",25.1 to 158,< 0.0316
"Cc1cccc(-c2n[nH]cc2-c2ccc3ncc(N4CCN(Cc5cccnc5)CC4)cc3n2)n1 [Compound 132, 2-[3-(6-methyl-2-pyridyl)-1H-pyrazol-4-yl]-7-[4-(3-pyridylmethyl)piperazin-1-yl]-1,5-naphthyridine]",25.1 to 158,0.0398 to 0.316
"Cc1cccc(-c2n[nH]cc2-c2ccc3ncc(-n4cc(-c5ccccc5)nn4)cc3n2)n1 [Compound 133, 2-[3-(6-methyl-2-pyridyl)-1H-pyrazol-4-yl]-7-(4-phenyltriazol-1-yl)-1,5-naphthyridine]",25.1 to 158,0.398 to 3.16
"Cc1cccc(-c2n[nH]cc2-c2ccc3ncc(-c4nc5c([nH]4)CCNC5)cc3n2)n1 [Compound 134, 2-[3-(6-methyl-2-pyridyl)-1H-pyrazol-4-yl]-7-(4,5,6,7-tetrahydro-1H-imidazo[4,5-c]pyridin-2-yl)-1,5-naphthyridine]",1580 to 10000,0.0398 to 0.316
"Cc1nc(-c2n[nH]cc2-c2ccc3ncc(N4CC[C@H](N(C)C)C4)cc3n2)ccc1F [Compound 135, (3S)-1-[6-[3-(5-fluoro-6-methyl-2-pyridyl)-1H-pyrazol-4-yl]-1,5-naphthyridin-3-yl]-N,N-dimethyl-pyrrolidin-3-amine]",25.1 to 158,< 0.0316
"Cc1cccc(-c2[nH]cnc2-c2ccc3ncc(-c4cncc(C(=O)OC5CCNCC5)c4)cc3c2)n1 [Compound 136, 4-piperidyl 5-[6-[5-(6-methyl-2-pyridyl)-1H-imidazol-4-yl]-3-quinolyl]pyridine-3-carboxylate]",200 to 1260,0.0398 to 0.316
"COC(=O)C1CN(CCNc2cnc3ccc(-c4c[nH]nc4-c4cccc(C)n4)nc3c2)CCN1 (stereo not drawn) [Compound 137, methyl 4-[2-[[6-[3-(6-methyl-2-pyridyl)-1H-pyrazol-4-yl]-1,5-naphthyridin-3-yl]amino]ethyl]piperazine-2-carboxylate]",1580 to 10000,0.0398 to 0.316
"Cc1cccc(-c2[nH]cnc2-c2ccc3ncc(C4=CC(N)CCC4)cc3c2)n1 (stereo not drawn) [Compound 138, 3-[6-[5-(6-methyl-2-pyridyl)-1H-imidazol-4-yl]-3-quinolyl]cyclohex-2-en-1-amine]",25.1 to 158,0.0398 to 0.316
"Cc1cccc(-c2n[nH]cc2-c2ccc3ncc(-c4cc(C(F)(F)F)n[nH]4)cc3n2)n1 [Compound 139, 2-[3-(6-methyl-2-pyridyl)-1H-pyrazol-4-yl]-7-[3-(trifluoromethyl)-1H-pyrazol-5-yl]-1,5-naphthyridine]",25.1 to 158,0.0398 to 0.316
"Cc1cccc(-c2n[nH]cc2-c2ccc3ncc(N4CCC(N(C)C)CC4)cc3n2)n1 [Compound 141, N,N-dimethyl-1-[6-[3-(6-methyl-2-pyridyl)-1H-pyrazol-4-yl]-1,5-naphthyridin-3-yl]piperidin-4-amine]",25.1 to 158,< 0.0316
"Cc1cccc(-c2[nH]cnc2-c2ccc3ncc(C4CCC(N)CC4)cc3c2)n1 (stereo not drawn) [Compound 142, 4-[6-[5-(6-methyl-2-pyridyl)-1H-imidazol-4-yl]-3-quinolyl]cyclohexanamine]",25.1 to 158,0.398 to 3.16
"Cc1cccc(-c2n[nH]cc2-c2ccc3ncc(-c4ncc5n4CCNC5)cc3n2)n1 [Compound 143, 2-[3-(6-methyl-2-pyridyl)-1H-pyrazol-4-yl]-7-(5,6,7,8-tetrahydroimidazo[1,5-a]pyrazin-3-yl)-1,5-naphthyridine]",200 to 1260,0.0398 to 0.316
"Cc1cccc(-c2n[nH]cc2-c2ccc3ncc(N4CCCN(C)CC4)cc3n2)n1 [Compound 144, 7-(4-methyl-1,4-diazepan-1-yl)-2-[3-(6-methyl-2-pyridyl)-1H-pyrazol-4-yl]-1,5-naphthyridine]",25.1 to 158,0.0398 to 0.316
"Cc1cccc(-c2[nH]cnc2-c2ccc3ncc(-c4ccc(C(=O)O)cc4)cc3c2)n1 [Compound 145, 4-[6-[5-(6-methyl-2-pyridyl)-1H-imidazol-4-yl]-3-quinolyl]benzoic acid]",200 to 1260,0.0398 to 0.316
"Cc1cccc(-c2[nH]ncc2-c2ccc3ncc(C(=O)OCCCCN4CCCC4)cc3n2)n1 [Compound 146, 4-pyrrolidin-1-ylbutyl 6-[5-(6-methyl-2-pyridyl)-1H-pyrazol-4-yl]-1,5-naphthyridine-3-carboxylate]",25.1 to 158,0.0398 to 0.316
